Earlier results as cited in US8609359B2, “Methods for determining the concentration of gamma-hydroxy butyric acid (GHB) in a sample” (Bühlmann Laboratories AG, priority 2009, dated 2013).

Assays:
[1] = system: GHB receptor; details: for GHB-appropriate responding: animals
[2] = effects can resolve quite suddenly
[3] = target: GABAB receptor (Homo sapiens, UniProt Q9UBS5)
[4] = when consumed with food
[5] = in 1 ml of water

Sequence of GABAB receptor (Q9UBS5 15-961 limits assumed): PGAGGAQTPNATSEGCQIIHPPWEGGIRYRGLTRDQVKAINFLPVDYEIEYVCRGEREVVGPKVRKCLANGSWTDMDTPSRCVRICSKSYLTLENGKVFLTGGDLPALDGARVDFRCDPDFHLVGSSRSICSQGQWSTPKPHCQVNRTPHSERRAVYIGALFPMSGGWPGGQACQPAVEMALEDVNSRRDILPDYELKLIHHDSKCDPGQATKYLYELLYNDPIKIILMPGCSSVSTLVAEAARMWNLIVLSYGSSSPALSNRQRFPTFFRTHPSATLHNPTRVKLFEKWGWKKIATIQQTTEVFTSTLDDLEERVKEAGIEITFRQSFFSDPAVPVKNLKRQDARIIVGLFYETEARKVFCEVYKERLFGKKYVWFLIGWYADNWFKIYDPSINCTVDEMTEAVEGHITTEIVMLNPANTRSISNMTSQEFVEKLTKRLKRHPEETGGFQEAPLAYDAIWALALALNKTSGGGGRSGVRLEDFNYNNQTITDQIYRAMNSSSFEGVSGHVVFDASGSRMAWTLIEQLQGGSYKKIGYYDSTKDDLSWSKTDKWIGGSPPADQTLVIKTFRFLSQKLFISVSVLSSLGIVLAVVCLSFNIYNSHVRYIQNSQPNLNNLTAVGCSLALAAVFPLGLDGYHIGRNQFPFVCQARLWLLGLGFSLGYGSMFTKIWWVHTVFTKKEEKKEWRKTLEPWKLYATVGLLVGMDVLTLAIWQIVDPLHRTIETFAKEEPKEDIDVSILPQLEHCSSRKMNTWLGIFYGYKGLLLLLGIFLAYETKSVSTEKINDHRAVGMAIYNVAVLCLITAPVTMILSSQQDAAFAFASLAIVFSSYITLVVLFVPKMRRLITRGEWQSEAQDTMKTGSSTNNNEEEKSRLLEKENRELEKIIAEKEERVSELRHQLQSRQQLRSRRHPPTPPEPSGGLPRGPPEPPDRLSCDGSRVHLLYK
Sequence of GABAB receptor (O75899 42-941 partner): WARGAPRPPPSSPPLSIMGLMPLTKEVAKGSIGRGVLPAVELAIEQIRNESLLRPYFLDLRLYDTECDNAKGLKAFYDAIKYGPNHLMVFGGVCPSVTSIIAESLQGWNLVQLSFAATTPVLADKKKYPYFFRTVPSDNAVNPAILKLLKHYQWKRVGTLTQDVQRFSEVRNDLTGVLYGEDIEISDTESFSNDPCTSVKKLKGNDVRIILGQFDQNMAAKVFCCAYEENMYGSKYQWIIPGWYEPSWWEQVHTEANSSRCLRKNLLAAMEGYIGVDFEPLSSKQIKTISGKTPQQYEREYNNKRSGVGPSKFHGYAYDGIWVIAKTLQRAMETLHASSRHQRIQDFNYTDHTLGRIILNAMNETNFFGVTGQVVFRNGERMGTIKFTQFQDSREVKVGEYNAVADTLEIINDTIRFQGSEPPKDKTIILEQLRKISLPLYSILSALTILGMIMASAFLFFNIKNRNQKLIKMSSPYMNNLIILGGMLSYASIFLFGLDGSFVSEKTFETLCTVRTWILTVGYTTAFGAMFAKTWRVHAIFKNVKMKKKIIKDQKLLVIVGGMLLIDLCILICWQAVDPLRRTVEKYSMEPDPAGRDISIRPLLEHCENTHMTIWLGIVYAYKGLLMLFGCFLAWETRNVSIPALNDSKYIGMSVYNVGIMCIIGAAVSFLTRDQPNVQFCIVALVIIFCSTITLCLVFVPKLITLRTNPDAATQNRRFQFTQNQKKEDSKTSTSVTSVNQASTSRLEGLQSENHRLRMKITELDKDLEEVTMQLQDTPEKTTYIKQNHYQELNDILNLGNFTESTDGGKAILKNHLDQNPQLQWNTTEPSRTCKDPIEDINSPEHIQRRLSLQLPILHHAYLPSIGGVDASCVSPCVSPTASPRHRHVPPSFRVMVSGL

Question: For `O=C(O)CCC(O)Cc1ccc(Cl)cc1` (stereo not shown) [4-(p-chlorobenzyl)-GHB], which convulsions in animals [1] is on record?
Answer: cause convulsions in animals

Question: And the GHB-appropriate responding [1]?
Answer: do not produce GHB-appropriate responding

Question: For `O=C(O)CCCO` [GHB, 4-hydroxybutanoic acid], which “duration of the effects” value [2] is on record?
Answer: about four

Question: What about the “affinity for GABAB receptor” value [3] of the same compound?
Answer: relatively weak affinity

Question: For `O=C([O-])CCCO.[Na+]` [sodium GHB], which bioavailability [4] is on record?
Answer: considerably reduced

Question: And the “amount of sodium GHB that can be dissolved” value [5]?
Answer: More than 1 g

Question: For `O=C(O)/C=C/CO` [trans-4-hydroxycrotonic acid], which GHB-appropriate responding [1] is on record?
Answer: do not produce GHB-appropriate responding
